# Several values for one entry are separate records, joined by “and”; a condition that tells them apart may be missing. Identical values can stand only once. Like-named read-outs stand apart in the source and are kept apart here.
# Legend:
# [1] = tested on: KAP liver metastasis; experiment: survival of wild-type mice with KAP liver metastasis; assay type: in vivo, mouse; conditions: single animals; 1 = event, 0 = censored; Fig. 6e
# Method: (§2) Subcutaneous injection, splenic seeding or cecum injection of organoids was performed in 8–10-week-old C57BL/6 N/Crl, Rag2^−/− (B6.Cg-Rag2^tm1.1Cgn/J), or CB17 Scid beige (CB17.Cg-Prkdc^scidLyst^bg-J/Crl) mice, obtained from Charles River. The organoids were dissociated into single cells, washed with PBS and injected in a 1:1 mixture of PBS and Matrigel. For murine organoids, 1 × 10^5 cells were injected into the left and right flanks or the spleen capsule and 2 × 10^6 cells were injected into the cecum wall. For human organoids, 4 × 10^5 cells were injected into the flanks of CB17 Scid beige mice. For splenic seeding and cecum injection, mice were anaesthetized using ketamine (100 mg kg^−1, intraperitoneally) and xylazin (10 mg/kg, intraperitoneally) in NaCl and a small laparotomy below the thorax was performed.
# (§3) No mice were excluded during treatment studies.
# [2] = tested on: subcutaneous KAP CRCs; experiment: treatment of subcutaneous KAP tumors in wild-type mice; assay type: in vivo, mouse; conditions: Fig. 1j, individual tumors
# Method: as §2, §3
# [3] = tested on: PDO10; experiment: cell viability in patient-derived CRC organoids PDO10; assay type: cell-based, human
# Method: (§1) For in vitro treatment studies, organoids were mechanically dissociated and digested using TrypLE supplemented with 100 µg ml^−1 DNaseI and 10.5 µM Y-27632 dihydrochloride (Invitrogen) at 37 °C. A total of 1,000–2,000 single cells were plated per well in white 96-well plates (Greiner) in culture medium containing 10% GFR Matrigel or Cultrex BME. The treatment with doxycycline (5 µg ml^−1), pharmacological inhibitors or corresponding volumes of DMSO was started 24 h after plating. Doxycycline was obtained from Sigma-Aldrich. […] Cell viability was measured by means of CellTiter-Glo 3D or CellTiter-Glo 2.0 reagent (Promega) according to the manufacturers’ instructions and the Infinite M Plex reader (Tecan, i-control version 3.9.1 software). Results were normalized to vehicle (DMSO) or to shNC. For cell-doubling assays, the cell number was quantified at the corresponding time points using Guava EasyCyte flow cytometer (Luminex, CytoSoft v5.2 software).
# [4] = tested on: KAP^2D cells; experiment: P-H3^S10 / α-tubulin staining, mitotic phases in KAP^2D cells; assay type: cell-based, mouse; conditions: replicates, experiment and repetition
# Method: Immunofluorescence staining on cells and organoids was performed on glass coverslips or tissue culture chambers (Sarstedt). Organoids were plated in medium containing 10% Matrigel or Cultrex BME. The cultures were fixed with 4% paraformaldehyde and stained with specific antibodies and DAPI (Vector Labs). All used antibodies and dilutions are listed in the Nature Portfolio Reporting Summary. For analyzing DNA synthesis, the Molecular Probes Click-iT EdU Alexa Fluor 555 kit was used 24 h after EdU incorporation with DAPI counterstaining. SA-β-Gal staining of cells was performed in cell culture dishes (cells) or tissue culture chambers (organoids) after fixation with 0.5% glutaraldehyde as described above. Human cultures were incubated with X-Gal solution at pH 6.0 for ~4 h. […] Positive cells were quantified using ImageJ version 1.53a software. The analysis of mitosis was performed with an LSM800 Airyscan (Zeiss) microscope (ZEN version 3.0 software). An Airyscan autofilter processing was applied before image analysis.
# [5] = tested on: PDO13; experiment: cell viability in patient-derived CRC organoids PDO13; assay type: cell-based, human
# Method: as §1
# [6] = tested on: KAP organoids; experiment: cell viability in KAP organoids (CellTiter-Glo); assay type: cell-based, mouse
# Method: as §1
# [7] = tested on: KAP^2D cells; experiment: EdU incorporation in KAP^2D cells; assay type: cell-based, mouse; conditions: replicates, experiment and repetition
# Method: Immunofluorescence staining on cells and organoids was performed on glass coverslips or tissue culture chambers (Sarstedt). Organoids were plated in medium containing 10% Matrigel or Cultrex BME. The cultures were fixed with 4% paraformaldehyde and stained with specific antibodies and DAPI (Vector Labs). All used antibodies and dilutions are listed in the Nature Portfolio Reporting Summary. For analyzing DNA synthesis, the Molecular Probes Click-iT EdU Alexa Fluor 555 kit was used 24 h after EdU incorporation with DAPI counterstaining. SA-β-Gal staining of cells was performed in cell culture dishes (cells) or tissue culture chambers (organoids) after fixation with 0.5% glutaraldehyde as described above. Human cultures were incubated with X-Gal solution at pH 6.0 for ~4 h.
# [8] = tested on: PDO15; experiment: cell viability in patient-derived CRC organoids PDO15; assay type: cell-based, human
# Method: as §1
structure (smiles),measurement,setting,value
"O=C1c2ccc(Nc3ccc(F)cc3F)cc2CCc2ccc(OC[C@H](O)CO)cc21 [SKL, skepinone-L, reference compound]",Survival,[1],15 d of treatment and 16 d of treatment and 18 d of treatment and 26 d of treatment and 28 d of treatment and 11 d of treatment
same,Tumor volume (mm³),[2]; day 0 of treatment,32.0 mm³ and 62.5 mm³ (2×) and 64.0 mm³ and 75.0 mm³ and 31.5 mm³ and 56.0 mm³ (3×) and 40.0 mm³
same,Tumor volume (mm³),[2]; day 2 of treatment,56.0 mm³ and 100.0 mm³ and 75.0 mm³ and 108.0 mm³ and 36.0 mm³ and 62.5 mm³ and 64.0 mm³ (3×) and 48.0 mm³
same,Tumor volume (mm³),[2]; day 4 of treatment,100.0 mm³ and 108.0 mm³ and 87.5 mm³ and 126.0 mm³ and 48.0 mm³ and 75.0 mm³ (4×) and 56.0 mm³
same,Tumor volume (mm³),[2]; day 6 of treatment,100.0 mm³ (2×) and 112.5 mm³ and 171.5 mm³ and 144.0 mm³ and 56.0 mm³ and 75.0 mm³ (2×) and 108.0 mm³ and 62.5 mm³
same,Tumor volume (mm³),[2]; day 8 of treatment,144.0 mm³ and 180.0 mm³ (2×) and 162.0 mm³ and 72.0 mm³ and 108.0 mm³ and 126.0 mm³ and 87.5 mm³ and 112.5 mm³ (2×)
same,Tumor volume (mm³),[2]; day 10 of treatment,180.0 mm³ (2×) and 245.0 mm³ and 171.5 mm³ and 112.5 mm³ and 126.0 mm³ (3×) and 144.0 mm³ and 108.0 mm³
same,Tumor volume (mm³),[2]; day 12 of treatment,245.0 mm³ and 320.0 mm³ and 196.0 mm³ (3×) and 125.0 mm³ and 171.5 mm³ (2×) and 162.0 mm³ and 144.0 mm³
same,viability at 0.5 µM,"[3]; Homo sapiens, 96 h, read-out: Cell viability (%), PDO10, 0.5 µM, 4 d",90.5%
same,viability at 1 µM,"[3]; Homo sapiens, 96 h, read-out: Cell viability (%), PDO10, 1 µM, 4 days",94.7%
same,Cell viability (%),"[3]; PDO10, 0.5 µM, 4 d, 0.5 µM",87.26% and 98.21%
same,Cell viability (%),"[3]; PDO10, 1 µM, 4 days, 1 µM",92.67% and 102.90%
same,"Anaphase, % (of fully P-H3S10+ cells)",[4]; Fig. 4f,10.84% and 8.57% and 15.15% and 12.31% and 9.21% and 11.59%
same,"Metaphase, % (of fully P-H3S10+ cells)",[4]; Fig. 4f,25.30% and 20.00% and 30.30% and 29.23% and 25.00% and 27.54%
same,"Multipolar mitosis, % (of fully P-H3S10+ cells)",[4]; Fig. 4f,3.61% and 2.86% and 6.06% and 3.08% and 3.95% and 8.70%
same,"Telophase, % (of fully P-H3S10+ cells)",[4]; Fig. 4f,8.43% and 9.52% and 12.12% and 10.77% and 13.16% and 15.94%
same,"P-H3S10+ cells, fully positive",[4]; Fig. 4d,4.75% and 6.25% and 2.15% and 4.12% and 5.03% and 3.69%
same,"P-H3S10+ cells, partially positive",[4]; Fig. 4d,6.47% and 7.85% and 5.54% and 6.84% and 8.15%
same,viability at 0.5 µM,"[5]; Homo sapiens, 96 h, read-out: Cell viability (%), PDO13, 0.5 µM, 4 d",90.8%
same,viability at 1 µM,"[5]; Homo sapiens, 96 h, read-out: Cell viability (%), PDO13, 1 µM, 4 days",85.6%
same,Cell viability (%),"[5]; PDO13, 0.5 µM, 4 d, 0.5 µM",102.60% and 92.37%
same,Cell viability (%),"[5]; PDO13, 1 µM, 4 days, 1 µM",87.89% and 85.59%
same,Cell viability (%),"[6]; Fig. 1g, 0.5 µM, replicates",97.57% and 86.81% and 127.06%
same,Cell viability (%),"[6]; Fig. 1g, 1 µM, replicates",93.70% and 102.05% and 122.58%
same,Cell viability (%),"[6]; Fig. 2b, compound screen, replicates",78.66% and 92.01% and 89.54%
same,Cell viability (%),"[6]; Fig. 1d, 0.5 µM, replicates",86.70% and 72.97%
same,Cell viability (%),"[6]; Fig. 1d, 1 µM, replicates",91.26% and 93.11%
same,Cell viability (%),"[6]; Fig. 1d, 5 µM, replicates",88.80% and 85.26%
same,Cell viability (%),"[6]; Fig. 1d, 10 µM, replicates",80.68% and 88.78% and 66.49%
same,viability at 0.5 µM,"[6]; Mus musculus, 24 h, read-out: Cell viability (%), Fig. 1d, 0.5 µM, replicates",90.7%
same,viability at 1 µM,"[6]; Mus musculus, 24 h, read-out: Cell viability (%), Fig. 1d, 1 µM, replicates",87.6%
same,viability at 5 µM,"[6]; Mus musculus, 24 h, read-out: Cell viability (%), Fig. 1d, 5 µM, replicates",86.5%
same,viability at 1 µM,"[6]; Mus musculus, read-out: Cell viability (% of DMSO), drug screen in KAP organoids, 1 µM concentration, n = 3, mean",86.7%
same,induction of cell death in KAP organoids (in words),[6]; viability assay,only a very weak induction of cell death
same,EdU+ cells,[7]; Fig. 4j,82.79% and 86.90% and 76.55% and 79.03% and 85.67% and 83.92% and 75.07% and 81.04%
same,EdU+ cells,[7]; Fig. 5b,71.09% and 73.09% and 75.56% and 76.21% and 80.69% and 80.64% and 67.57% and 64.28%
same,viability at 0.5 µM,"[8]; Homo sapiens, 96 h, read-out: Cell viability (%), PDO15, 0.5 µM, 4 d",98%
same,viability at 1 µM,"[8]; Homo sapiens, 96 h, read-out: Cell viability (%), PDO15, 1 µM, 4 days",106%
same,Cell viability (%),"[8]; PDO15, 0.5 µM, 4 d, 0.5 µM",99.16% and 105.27%
same,Cell viability (%),"[8]; PDO15, 1 µM, 4 days, 1 µM",107.85% and 101.84%
